The values that follow come from US11260050B2, “Combination of cotinine plus antioxidant for treatment-resistant depression and correction of astrocytes functional deficit induced by depression and other neuropathological” (UNIVERSIDAD SAN SEBASTIAN, priority 2017, dated 2022).

For one series, the system named is GFAP. Description: GFAP immunoreactivity and GFAP+ cell density, hippocampus and frontal cortex (Example 2). Type of series: in vivo, C57BL/6 male mice. As for the experimental part: Mice between 2-3 months of age after one week of acclimatization were randomly divided into two groups. Stressed mice were subjected to restraint stress. Control (non-restrained) mice were allowed to move freely during this period. After the stress exposure period, mice were divided into three experimental groups: 1) Non-restrained mice treated with vehicle (PBS, pH 7.4) serving as unstressed controls (n=8); 2) Restrained mice (RS) treated with vehicle (n=8); 3), RS mice treated with 24 μl of a cotinine solution (10 mg/ml in PBS, pH 7.4) via intranasal route of administration (n=6). Treatments were administered daily until euthanasia. After two weeks of treatments mice were behaviorally tested and euthanized (FIG. 10)
For all protein analyses, mice were euthanized and brains removed. Each brain was divided into two hemispheres. The left hemisphere of brains was dissected out to collect the regions of interest and quickly frozen for later analyses. For the immunohistochemical (IHC) analysis the right hemisphere of each mouse brain was placed in 10% formalin in PBS pH 7.4 for 48 h and then embedded in paraffin. Each region of interest was located using Paxinos Atlas as a reference (Paxinos and Franklin, 2004), and serial […] of 4 μm (n≥5/mouse) were collected using the Microtome Leica RM 2125RT and mounted on silanized glass slides.
The analysis of GFAP^+ cells was performed using tissue slices containing the ventral hippocampus (Approx. Bregma −4.08 mm, interaural 4.92 mm) and frontal cortex (Approx. Bregma 3.2 mm, interaural 1.54 mm). Sagittal sections of brains were collected in PBS and processed for GFAP immunoreactivity (IR). Brain slices were immersed in xylene and a decreasing graduation of ethanol baths for hydration. Then, slides were subjected to a standard process of antigenic recovery in buffer citrate pH=6 in a pressurized saucepan (Biocare Medical, Walnut Creek, Calif.) for 30 min. Next, slides were incubated with a solution of 3% hydrogen peroxide to block endogenous peroxidase for 5 min, washed with PBS, and blocked with a horse serum solution (Vectastain Elite ABC, Vector Laboratories, Burlingame, Calif., USA) for 10 min at room temperature (RT). Sections were washed in PBS and incubated for 1 hour (Franklin, 2001) at RT with an antibody against GFAP 1:100 (Sigma). After washing with PBS, sections were incubated with a biotinylated secondary antibody for 10 min. Then, sections were washed with PBS and incubated with the amplifier solution from the Vectastain Elite kit for 10 min at RT. The reaction was visualized using ImmunoDetector DAB (SB Bio Inc., Santa Barbara, Calif., USA). For counterstaining, sections were stained with hematoxylin for 30 seconds (sec), dehydrated in baths of ascending percentages of alcohol solutions and xylene, and mounted with synthetic resin.
For the IR analysis, for each mouse, three digital images were randomly selected at 40× magnifications in the areas of interest (hippocampus and frontal cortex) (n=5-6/condition). […] The determination of the area of the immunolabeling was calculated delimiting the IR areas using the ImageJ software (National Institute of Health, Bethesda, […]., USA). For all analyses, GFAP^+ astrocytes were selected randomly from the frontal cortex and the CA1, CA3 and dentate gyrus regions of the hippocampus and quantified. […]

In a further series the test system is calcineurin A. Briefly: Western blot of calcineurin A in the hippocampus (Example 4). The following applies: conditioned mice after extinction; vs PBS-treated conditioned mice. Type of series: in vivo, Mice C57BL/6. On the procedure:
Three-month-old mice (n=5-6/condition) were weighed and assigned to treatment groups. Mice were treated with vehicle or drugs, starting two h after fear conditioning and daily after behavioral testing until euthanasia. Mice received daily treatments with 1. PBS (phosphate buffer saline, pH 7.4) via intranasal; 2. Cotinine (10 mg/ml) dissolved in PBS via intranasal (IN Cot, 24 μl); 3. Krill oil dissolved in PBS, via intranasal (48 mg/ml, 24 μl); 4. Cotinine (10 mg/ml) plus krill oil dissolved in PBS, via intranasal (48 mg/ml, 24 μl); 5. […] The dose of cotinine was ten times lower than the dose of oral cotinine promoting fear extinction in C57BL/6 mice.
After the behavioral testing, mice from all treatment groups were euthanized via cervical dislocation by a well-trained investigator. Brain regions of interest were dissected and stored at −20° C. for protein analyses. Each brain was divided into two parts, left and right hemispheres. […] The protein concentration of the supernatants was measured using the Bio-Rad protein assay (Bio-Rad, Hercules, Calif., USA). […] Membranes were washed with TBST and incubated with HRP-conjugated secondary antibodies (Bio-Rad) for 1 h at RT, washed with TBST and TBS, and images were acquired using My ECL imaging system and analyzed using the NIH Image J software.

The next series concerns mice. The following applies: absence of stress, cotinine treatment for up to eight months; cited from earlier work.
Setting [1] is: cotinine IN administered after RS.

On to `CN1C(=O)CC[C@H]1c1cccnc1` [Cotinine, (5S)-1-methyl-5-(3-pyridyl) pyrrolidin-2-one], for which the “number of hippocampal GFAP+ cells counted” value in the series on GFAP (Ctrl 144, RS 97) is given as 140. Besides, in the series with GFAP (setting [1]), the “GFAP IR in the frontal cortex” value is listed as 90 % of control values and the “GFAP IR in the hippocampus” value was 84 % of control value. The “GFAP+ cell density in hippocampal regions” value in the series on GFAP (restrained mice, CA1 p<0.01, CA2 p<0.05, DG p<0.01) is “significantly higher in the cotinine-treated restrained mice relative to vehicle-treated restrained mice”. In the series with GFAP (vehicle-treated vs cotinine-treated control mice), the “GFAP+ cell density in control (non-stressed) mice” value was “No significant differences”. The “calcineurin A levels in the hippocampus” value in the series with calcineurin A is listed as “significantly different from PBS-treated conditioned mice”. In addition, the “sensory motor abilities or anxiety” value in the series with mice is “did not induce significant differences in sensory motor abilities or anxiety”.
